Experimental data from ChEMBL document CHEMBL1201862, “PubChem BioAssay data set” (2004).
Activity calls are given as the source filed them. No stated cut-off is given here; in the data, actives have a measured IC50 and inactives only a lower limit.

Molecular target: Envelope glycoprotein gp160 (Human immunodeficiency virus 1, UniProt Q6QLK5)
Test: inhibitors of HIV fusion peptide binding, primary screen, biochemical, uHTS, fluorescence dequenching (AID 1986)

Chain of Envelope glycoprotein gp160 (Q6QLK5 whole entry, the tested form may be a part): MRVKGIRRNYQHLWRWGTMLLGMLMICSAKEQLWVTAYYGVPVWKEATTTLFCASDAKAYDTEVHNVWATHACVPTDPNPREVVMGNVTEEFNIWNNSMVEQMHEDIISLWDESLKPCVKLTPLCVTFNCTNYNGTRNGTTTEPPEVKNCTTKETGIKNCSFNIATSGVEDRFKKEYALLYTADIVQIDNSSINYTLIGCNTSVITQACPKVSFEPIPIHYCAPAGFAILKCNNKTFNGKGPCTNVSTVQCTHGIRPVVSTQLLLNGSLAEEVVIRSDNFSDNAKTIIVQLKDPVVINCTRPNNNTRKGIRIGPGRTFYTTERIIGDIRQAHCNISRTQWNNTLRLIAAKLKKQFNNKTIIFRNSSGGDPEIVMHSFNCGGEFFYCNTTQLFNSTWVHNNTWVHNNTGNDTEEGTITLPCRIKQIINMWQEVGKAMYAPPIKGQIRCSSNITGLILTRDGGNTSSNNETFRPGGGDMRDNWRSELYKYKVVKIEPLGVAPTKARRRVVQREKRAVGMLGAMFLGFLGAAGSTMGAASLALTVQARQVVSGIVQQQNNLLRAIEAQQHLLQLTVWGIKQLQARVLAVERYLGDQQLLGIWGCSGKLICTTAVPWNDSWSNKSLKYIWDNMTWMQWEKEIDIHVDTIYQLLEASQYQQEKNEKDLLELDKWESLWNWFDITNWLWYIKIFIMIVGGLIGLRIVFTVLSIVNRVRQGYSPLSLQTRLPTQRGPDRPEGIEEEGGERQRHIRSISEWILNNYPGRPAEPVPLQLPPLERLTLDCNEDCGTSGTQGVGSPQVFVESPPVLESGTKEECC

SMILES | IC50
O=C(Nc1cc(C(=O)Nc2ccccc2C(=O)O)cc(C(=O)Nc2ccccc2C(=O)O)c1)c1ccccc1 | 6.36 µM (active)
COc1ccc(C(=O)Nc2ccc(/C(C)=N/NC(=O)c3ccncc3)cc2)cc1 | 15 µM (active)
